In patent US20040142979A1, “Heteroarylsulfonylmethyl hydroxamic acids and amides and their use as protease inhibitors” (priority 2002, published 2004):
pKi: −log10 of the molar value.

Assays:
Type in all cases: biochemical
[1] = molecular target: T1, Human recombinant MMP-14 (Homo sapiens, UniProt P50281); experiment: In vitro MMP inhibition analysis (fluorogenic peptide substrate), MMP-14; details: human recombinant catalytic domain; 4 μM substrate (A); apparent Ki without substrate correction
T1 construct: The catalytic domain enzyme was expressed in E. Coli inclusion bodies; made in house
Description: (§1) Several compounds and salts were analyzed in an in vitro assay to determine their ability to inhibit the MMP cleavage of peptide substrates. Inhibition constant (Ki) were calculated from the assayed compound-MMP interactions.
(§2) Human recombinant MMP-1, MMP-2, MMP-9, MMP-13, and MMP-14 were used in this assay. All enzymes were prepared in Assignee's laboratories following usual laboratory procedures. Protocols for the preparation and use of these enzymes are available in the scientific literature. See, e.g., Enzyme Nomenclature (Academic Press, San Diego, Calif., 1992) (and the citations therein). See also, Freije et al., J. Biol. Chem., 269(24), 16766-16773 (1994).
The MMP-14 full length cDNA was provided by Dr. Gregory Goldberg of Washington University (St. Louis, Mo.). The catalytic domain enzyme was expressed in E. Coli inclusion bodies, solubilized in urea, purified on a preparative […] reverse phase HPLC column, and then refolded in the presence of zinc acetate and purified for use.
(§3) All MMPs were activated using 4-aminophenylmercuric acetate (“APMA”, Sigma Chemical, St. Louis, Mo.) or trypsin. MMP-9 also was activated using human recombinant MMP-3 (purified in Assignee's laboratory following standard cloning and purification techniques).
(§4) The following fluorogenic, methoxycoumarin-containing polypeptide substrate (A) was used in the MMP inhibition assays:
(§5) MCA-ArgProLeuGlyLeuDpaAlaArgGluArgNH2 (A)
(§6) “MCA” is 7-methoxycoumarin-4-yl acetyl. Substrate (A) was prepared Assignee's laboratory. In the absence of MMP inhibitory activity, the substrate is cleaved at the Gly-Leu peptide bond. This cleavage separates the highly fluorogenic peptide from the 2,4-dinitrophenyl quencher, thus resulting in increase of fluorescent intensity.
(§7) The stock solutions of the assayed compounds and salts were prepared in 1% dimethyl sulfoxide (DMSO). These stock solutions were diluted in Buffer A (100 mM Tris-HCl, 100 mM NaCl, 10 mM CaCl2, 0.05% polyoxyethylene 23 lauryl ether, pH 7.5) to obtain solutions with different compound concentrations, i.e., assay solutions with different concentrations of the assayed MMP inhibitory compound. The experiment controls contained the same amount of Buffer A/DMSO as the assayed sample, but contained none of the tested compound or salt.
(§8) The assays from which the Ki determinations were made were performed as follows. The assayed compound samples were incubated in separate wells of untreated white polystyrene plates (Nunc Nalgene International, Rochester, N.Y.), and analyzed on a Tecan SpectraFlour Plus plate reader. The excitation wavelength was 330 nm, and the emission wavelength -420 nm. All samples (assayed compounds and controls) were incubated in separate plate wells at room temperature for 1 hr in the presence of 4 μM of MMP substrate (A). In the absence of MMP inhibitory activity, substrate (A) was cleaved at the Gly-Leu bond resulting in an increase of relative fluorescence. Inhibition was observed as a reduced rate of this increase in relative fluorescence. […] This protocol is a modification of method by Knight et al., FEBS Lett., 296(3), 263-266 (1992). Apparent inhibitory constants were determined by non-linear regression of reaction velocity as a function of inhibitor and enzyme concentration using Morrison's equation, as described by Kuzmic, P., et al., Anal. Biochem., 286(1):45-50 (2000). Modifications were made in the non-linear regression method to allow a common control reaction rate and effective enzyme concentration to be shared between all dose-response relationships on a given assay plate. Since the substrate concentration was chosen to be at or below the Km, the apparent Ki's from this analysis were reported as Ki's without correction for the influence of substrate.
(§9) The above protocols were used to determine MMP inhibition Ki constants for the compounds in Examples 1, 2, and 4-42 above. All Ki values in Table 3 are given in nM units.

[2] = molecular target: T2, Human recombinant MMP-9 (Homo sapiens, UniProt P14780); experiment: In vitro MMP inhibition analysis (fluorogenic peptide substrate), MMP-9; details: human recombinant enzyme; 4 μM substrate (A); apparent Ki without substrate correction
T2 construct: made in house; host or cells: MMP-9-transfected HT1080 cells (spent media)
T2 sequence (P14780 107-707 limits assumed): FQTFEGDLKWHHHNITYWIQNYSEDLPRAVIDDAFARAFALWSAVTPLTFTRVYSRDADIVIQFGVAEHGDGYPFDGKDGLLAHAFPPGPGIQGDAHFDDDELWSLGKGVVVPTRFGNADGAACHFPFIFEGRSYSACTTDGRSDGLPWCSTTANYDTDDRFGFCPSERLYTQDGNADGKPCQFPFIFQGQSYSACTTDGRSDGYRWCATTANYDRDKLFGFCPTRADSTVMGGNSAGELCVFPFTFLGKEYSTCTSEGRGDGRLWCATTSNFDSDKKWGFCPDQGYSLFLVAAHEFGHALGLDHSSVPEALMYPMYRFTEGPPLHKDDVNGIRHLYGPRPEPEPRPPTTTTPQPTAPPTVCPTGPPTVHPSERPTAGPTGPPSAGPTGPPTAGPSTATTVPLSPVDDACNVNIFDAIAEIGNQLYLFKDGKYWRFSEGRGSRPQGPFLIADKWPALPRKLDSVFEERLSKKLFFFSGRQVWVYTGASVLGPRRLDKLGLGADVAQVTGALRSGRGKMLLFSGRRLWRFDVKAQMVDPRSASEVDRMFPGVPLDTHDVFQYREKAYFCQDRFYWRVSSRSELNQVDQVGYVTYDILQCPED
Description: as §1, §2
The MMP-9 proenzyme was purified by gelatin Sepharose chromatography from spent media of MMP-9-transfected HT1080 cells provided by Dr. Howard Welgus of Washington University (St. Louis, Mo.).
as §3, §4, §5, §6, §7, §8, §9

[3] = molecular target: T3, Human recombinant MMP-13 (Homo sapiens, UniProt P45452); experiment: In vitro MMP inhibition analysis (fluorogenic peptide substrate), MMP-13; details: human recombinant enzyme; 4 μM substrate (A); apparent Ki without substrate correction
T3 construct: made in house; host or cells: baculovirus / insect cells
Description: as §1, §2
The MMP-13 was obtained as a proenzyme from a full-length cDNA clone using baculovirus, as described by V. A. Luckow, “Insect Cell Expression Technology,” Protein Engineering: Principles and Practice, pp. 183-218 (edited by J. L. Cleland et al., Wiley-Liss, Inc., 1996). The expressed proenzyme was first purified over a heparin agarose column, and then over a chelating zinc chloride column. The proenzyme was then activated by APMA for use in the assay. […] See also, O'Reilly et al, Baculovirus Expression Vectors: A Laboratory Manual (W. H. Freeman and Co., New York, N.Y., 1992). See also, King et al., The Baculovirus Expression System: A Laboratory Guide (Chapman & Hall, London, England, 1992).
as §3, §4, §5, §6, §7
as §8, with “Modifications were made in the non-linear regression method to allow a common control reaction rate and effective enzyme concentration to be shared between all dose-response relationships on a given assay plate.” left out
All Ki values in Table 3 are given in nM units.

pKi [1] | pKi [2] | pKi [3] | Structure (SMILES)
6.33 | 9.09 | 9.90 | CCCCOc1ccc(-c2ccc(S(=O)(=O)C3(C(=O)NO)CCOCC3)s2)cc1 [Example 43]
6.37 | 9.45 | 9.87 | O=C(NO)C1(S(=O)(=O)c2ccc(-c3ccc(OC(F)(F)C(F)F)cc3)s2)CCOCC1 [Example 44]
5.46 | 8.05 | 8.92 | CCCCCc1ccc(-c2ccc(S(=O)(=O)C3(C(=O)NO)CCOCC3)cn2)cc1 [Example 45]
6.07 | 9.01 | 9.77 | O=C(NO)C1(S(=O)(=O)c2ccc(-c3ccc(OCC(F)(F)F)cc3)nc2)CCOCC1 [Example 46]
5.67 | 8.82 | 9.51 | O=C(NO)C1(S(=O)(=O)c2ccc(-c3ccc(OC(F)(F)C(F)F)cc3)nc2)CCOCC1 [Example 47]
5.73 | 8.97 | 9.72 | O=C(NO)C1(S(=O)(=O)c2ccc(-c3ccc(OC(F)(F)C(F)F)cc3)nc2)CCOCC1 [Example 48]
5.03 | 7.99 | 9.09 | O=C(NO)C1(S(=O)(=O)c2ccc(-c3ccc(CCC(F)(F)C(F)(F)F)cn3)s2)CCOCC1 [Example 49]
5.55 | 6.88 | 7.99 | O=C(NO)C1(S(=O)(=O)c2ccc(-c3ccc(C(F)(F)F)cn3)s2)CCOCC1 [Example 50]
5.48 | 9.20 | 9.56 | O=C(NO)C1(S(=O)(=O)c2ccc3nc(-c4ccc(OC(F)(F)F)cc4)sc3c2)CCOCC1 [Example 51]
< 5.00 | 6.08 | 8.80 | CCCCc1ccc(C(=O)C2CCN(c3nc4ccc(S(=O)(=O)C5(C(=O)NO)CCOCC5)cc4s3)CC2)s1 [Example 52]
< 5.00 | 7.89 | 9.50 | CCCc1ccc(-c2nc3ccc(S(=O)(=O)C4(C(=O)NO)CCOCC4)cc3s2)cc1 [Example 53]
< 5.00 | 7.00 | 8.56 | CC(C)Cc1ncc(-c2nc3ccc(S(=O)(=O)C4(C(=O)NO)CCOCC4)cc3s2)s1 [Example 54]
< 5.00 | 5.48 | 6.75 | O=C(NO)C1(S(=O)(=O)c2ccc3nc(-c4cccc(C(F)(F)F)c4)sc3c2)CCOCC1 [Example 55]
6.10 | 7.16 | 8.46 | O=C(NO)C1(S(=O)(=O)c2ccc3nc(N4CCC(Oc5ccc(OC(F)(F)F)cc5)CC4)sc3c2)CCOCC1 [Example 56]
5.67 | 9.02 | 9.42 | O=C(NO)C1(S(=O)(=O)c2ccc3nc(-c4ccc(C(F)(F)F)cc4)sc3c2)CCOCC1 [Example 57]
5.60 | 8.97 | 9.47 | CCc1ccc(-c2nc3ccc(S(=O)(=O)C4(C(=O)NO)CCOCC4)cc3s2)cc1 [Example 58]

pKi [1] | pKi [2] | pKi [3] | Structure (SMILES)
6.03 | 8.29 | 9.23 | O=C(NO)C1(S(=O)(=O)c2ccc3nc(-c4ccc(Cl)s4)sc3c2)CCOCC1 [Example 59]
6.15 | 7.85 | 8.81 | O=C(NO)C1(S(=O)(=O)c2ccc3nc(-c4ccc(F)c(F)c4)sc3c2)CCOCC1 [Example 60]
< 5.00 | 7.67 | 8.53 | O=C(NO)C1(S(=O)(=O)c2ccc3nc(-c4ccc(F)cc4F)sc3c2)CCOCC1 [Example 61]
6.45 | 7.39 | 8.87 | O=C(NO)C1(S(=O)(=O)c2ccc3nc(-c4ccsc4)sc3c2)CCOCC1 [Example 62]
5.37 | 9.20 | 9.51 | COCCN1CCC(C(=O)NO)(S(=O)(=O)c2ccc3nc(-c4ccc(OC(F)(F)F)cc4)sc3c2)CC1 [Example 63]
5.42 | 6.10 | 7.66 | O=C(NO)C1(S(=O)(=O)c2ccc3nc(-n4cnc(-c5ccccc5)c4)sc3c2)CCOCC1 [Example 64]
6.16 | 8.14 | 8.98 | O=C(NO)C1(S(=O)(=O)c2ccc3nc(-c4ccc5c(c4)OCO5)sc3c2)CCOCC1 [Example 65]
< 6.51 | 8.47 | 10.09 | CCOc1ccc(-c2nc3ccc(S(=O)(=O)C4(C(=O)NO)CCOCC4)cc3s2)cc1 [Example 66]
5.44 | 9.33 | 9.53 | O=C(NO)C1(S(=O)(=O)c2ccc3nc(-c4ccc(SC(F)(F)F)cc4)sc3c2)CCOCC1 [Example 67]
5.61 | 8.55 | 9.14 | O=C(NO)C1(S(=O)(=O)c2ccc(-c3ccc(CCC(F)(F)F)cc3)nc2)CCOCC1 [Example 68]
5.29 | 8.05 | 9.27 | O=C(NO)C1(S(=O)(=O)c2ccc(-c3ccc(CCC(F)(F)C(F)(F)F)cc3)nc2)CCOCC1 [Example 69]
< 5.00 | < 5.00 | 8.74 | CCCCc1ccc(C(=O)C2CCN(c3ccc(S(=O)(=O)C4(C(=O)NO)CCOCC4)cn3)CC2)s1 [Example 70]
< 5.00 | < 5.00 | 8.71 | CC(C)CN(C)C(=O)Cc1ccc(-c2ccc(S(=O)(=O)C3(C(=O)NO)CCOCC3)cn2)cc1 [Example 71]
< 5.00 | 5.11 | 8.80 | O=C(Cc1ccc(-c2ccc(S(=O)(=O)C3(C(=O)NO)CCOCC3)cn2)cc1)N1CCCCC1 [Example 72]
< 5.00 | 5.65 | 7.73 | CCCCNC(=O)Cc1ccc(-c2ccc(S(=O)(=O)C3(C(=O)NO)CCOCC3)cn2)cc1 [Example 73]
< 5.00 | 5.31 | 8.72 | CCCCN(C)C(=O)Cc1ccc(-c2ccc(S(=O)(=O)C3(C(=O)NO)CCOCC3)cn2)cc1 [Example 74]
